Reference: article PMC3502614 (Science (New York, N.Y.), 2011)

Target: T1, M. smegmatis RpsA (Mycolicibacterium smegmatis, UniProt A0QYY6)
T1 sequence (A0QYY6 1-479): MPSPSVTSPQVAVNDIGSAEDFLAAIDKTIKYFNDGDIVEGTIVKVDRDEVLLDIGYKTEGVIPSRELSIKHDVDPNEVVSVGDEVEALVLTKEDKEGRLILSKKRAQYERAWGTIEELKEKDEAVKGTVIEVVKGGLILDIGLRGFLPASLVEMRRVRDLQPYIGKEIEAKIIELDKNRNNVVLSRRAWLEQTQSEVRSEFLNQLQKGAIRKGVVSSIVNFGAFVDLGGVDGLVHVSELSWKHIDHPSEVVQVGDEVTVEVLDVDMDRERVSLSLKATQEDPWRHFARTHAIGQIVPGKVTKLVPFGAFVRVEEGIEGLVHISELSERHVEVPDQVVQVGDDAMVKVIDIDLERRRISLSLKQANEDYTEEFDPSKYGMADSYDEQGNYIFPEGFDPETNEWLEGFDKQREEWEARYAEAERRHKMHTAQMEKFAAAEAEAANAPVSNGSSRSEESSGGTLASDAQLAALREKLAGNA
Test: isothermal titration calorimetry
Format: binding

Structure (SMILES): O=C(O)c1cnccn1 [POA, 2-pyrazinecarboxylic acid]
- weak binding by ITC: RpsA from naturally PZA-resistant M. smegmatis bound to POA only very weakly
